Measured values: PubChem BioAssay (NCI)
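Where inhibition never reached the appropriate level, the endpoint shown equals the highest concentration tested. Otherwise, values were interpolated linearly from a five-concentration, 48-hour dose response in 96-well plates. Here, GI50 denotes the concentration required for 50% inhibition of growth. TGI: total growth inhibition.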

Columns and labels:
Experiment in all cases: inhibition of tumour cell growth, NCI panel, 48 h
786-0 renal = tested on: 786-0 renal
A498 renal = tested on: A498 renal
A549 NSCLC = tested on: A549 NSCLC
ACHN renal = tested on: ACHN renal
BT-549 breast = tested on: BT-549 breast
CAKI-1 renal = tested on: CAKI-1 renal
CCRF-CEM leukemia = tested on: CCRF-CEM leukemia
COLO 205 colon = tested on: COLO 205 colon
DU-145 prostate = tested on: DU-145 prostate
EKVX NSCLC = tested on: EKVX NSCLC
HCC-2998 colon = tested on: HCC-2998 colon
HCT-116 colon = tested on: HCT-116 colon
HCT-15 colon = tested on: HCT-15 colon
HL-60(TB) leukemia = tested on: HL-60(TB) leukemia
HOP-62 NSCLC = tested on: HOP-62 NSCLC
HOP-92 NSCLC = tested on: HOP-92 NSCLC
HS 578T breast = tested on: HS 578T breast
HT29 colon = tested on: HT29 colon
IGROV1 ovarian = tested on: IGROV1 ovarian
K-562 leukemia = tested on: K-562 leukemia
KM12 colon = tested on: KM12 colon
LOX IMVI melanoma = tested on: LOX IMVI melanoma
M14 melanoma = tested on: M14 melanoma
MALME-3M melanoma = tested on: MALME-3M melanoma
MCF7 breast = tested on: MCF7 breast
MDA-MB-231 breast = tested on: MDA-MB-231 breast
MDA-MB-435 = tested on: MDA-MB-435
MDA-MB-468 breast = tested on: MDA-MB-468 breast
MOLT-4 leukemia = tested on: MOLT-4 leukemia
NCI-H226 lung = tested on: NCI-H226 lung
NCI-H23 lung = tested on: NCI-H23 lung
NCI-H460 lung = tested on: NCI-H460 lung
NCI-H522 lung = tested on: NCI-H522 lung
NCI/ADR-RES ovarian = tested on: NCI/ADR-RES ovarian
OVCAR-3 ovarian = tested on: OVCAR-3 ovarian
OVCAR-4 ovarian = tested on: OVCAR-4 ovarian
OVCAR-5 ovarian = tested on: OVCAR-5 ovarian
OVCAR-8 ovarian = tested on: OVCAR-8 ovarian
PC-3 prostate = tested on: PC-3 prostate
RPMI-8226 leukemia = tested on: RPMI-8226 leukemia
RXF 393 renal = tested on: RXF 393 renal
SF-268 CNS = tested on: SF-268 CNS
SF-295 CNS = tested on: SF-295 CNS
SF-539 CNS = tested on: SF-539 CNS
SK-MEL-2 melanoma = tested on: SK-MEL-2 melanoma
SK-MEL-28 melanoma = tested on: SK-MEL-28 melanoma
SK-MEL-5 melanoma = tested on: SK-MEL-5 melanoma
SK-OV-3 ovarian = tested on: SK-OV-3 ovarian
SN12C renal = tested on: SN12C renal
SNB-19 CNS = tested on: SNB-19 CNS
SNB-75 CNS = tested on: SNB-75 CNS
SR leukemia = tested on: SR leukemia
SW-620 colon = tested on: SW-620 colon
T-47D breast = tested on: T-47D breast
TK-10 renal = tested on: TK-10 renal
U251 CNS = tested on: U251 CNS
UACC-257 melanoma = tested on: UACC-257 melanoma
UACC-62 melanoma = tested on: UACC-62 melanoma
UO-31 renal = tested on: UO-31 renal

O=C(c1ccc(Cl)cc1)C1[C@H](c2ccccc2Cl)[C@@H](c2ccccc2)NC12C(=O)Nc1ccccc12 (stereo partly drawn)
GI50 (786-0 renal): 20.5 µM | TGI (786-0 renal): 51.6 µM | GI50 (A498 renal): 20.8 µM | TGI (A498 renal): 60.1 µM | GI50 (A549 NSCLC): 24.9 µM | TGI (A549 NSCLC): > 100 µM | GI50 (ACHN renal): 20.9 µM | TGI (ACHN renal): 71.8 µM | GI50 (BT-549 breast): 16.2 µM | TGI (BT-549 breast): 48.5 µM | GI50 (CAKI-1 renal): 18.9 µM | TGI (CAKI-1 renal): > 100 µM | GI50 (CCRF-CEM leukemia): 27.2 µM | TGI (CCRF-CEM leukemia): 95 µM | GI50 (COLO 205 colon): 16.3 µM | TGI (COLO 205 colon): 29.9 µM | GI50 (DU-145 prostate): 17.1 µM | TGI (DU-145 prostate): 51.2 µM | GI50 (EKVX NSCLC): 23.7 µM | TGI (EKVX NSCLC): > 100 µM | GI50 (HCC-2998 colon): 19.1 µM | TGI (HCC-2998 colon): 51.7 µM | GI50 (HCT-116 colon): 14.5 µM | TGI (HCT-116 colon): 29.6 µM | GI50 (HCT-15 colon): 25.3 µM | TGI (HCT-15 colon): > 100 µM | GI50 (HL-60(TB) leukemia): 17 µM | TGI (HL-60(TB) leukemia): 58.8 µM | GI50 (HOP-62 NSCLC): 17.4 µM | TGI (HOP-62 NSCLC): 61.8 µM | GI50 (HOP-92 NSCLC): 17.7 µM | TGI (HOP-92 NSCLC): 58.4 µM | GI50 (HS 578T breast): 12 µM | TGI (HS 578T breast): 34.6 µM | GI50 (HT29 colon): 14.6 µM | TGI (HT29 colon): 35 µM | GI50 (IGROV1 ovarian): 26.1 µM | TGI (IGROV1 ovarian): > 100 µM | GI50 (K-562 leukemia): 21.7 µM | TGI (K-562 leukemia): > 100 µM | GI50 (KM12 colon): 20.2 µM | TGI (KM12 colon): 58.1 µM | GI50 (LOX IMVI melanoma): 13.2 µM | TGI (LOX IMVI melanoma): 27.3 µM | GI50 (M14 melanoma): 16.3 µM | TGI (M14 melanoma): 43.1 µM | GI50 (MALME-3M melanoma): 15.7 µM | TGI (MALME-3M melanoma): 34.8 µM | GI50 (MCF7 breast): 16.2 µM | TGI (MCF7 breast): 58.4 µM | GI50 (MDA-MB-231 breast): 15 µM | TGI (MDA-MB-231 breast): 40.8 µM | GI50 (MDA-MB-435): 12.7 µM | TGI (MDA-MB-435): 28.8 µM | GI50 (MDA-MB-468 breast): 3.54 µM | TGI (MDA-MB-468 breast): 20.6 µM | GI50 (MOLT-4 leukemia): 20.3 µM | TGI (MOLT-4 leukemia): 74.9 µM | GI50 (NCI-H226 lung): 17.6 µM | TGI (NCI-H226 lung): 47.4 µM | GI50 (NCI-H23 lung): 18.3 µM | TGI (NCI-H23 lung): 52 µM | GI50 (NCI-H460 lung): 17.8 µM | TGI (NCI-H460 lung): 36.8 µM | GI50 (NCI-H522 lung): 15.2 µM | TGI (NCI-H522 lung): 46.3 µM | GI50 (NCI/ADR-RES ovarian): 14.9 µM | TGI (NCI/ADR-RES ovarian): 35.8 µM | GI50 (OVCAR-3 ovarian): 12.5 µM | TGI (OVCAR-3 ovarian): 35 µM | GI50 (OVCAR-4 ovarian): 25.6 µM | TGI (OVCAR-4 ovarian): > 100 µM | GI50 (OVCAR-5 ovarian): 18.5 µM | TGI (OVCAR-5 ovarian): 66.7 µM | GI50 (OVCAR-8 ovarian): 22 µM | TGI (OVCAR-8 ovarian): 72.3 µM | GI50 (PC-3 prostate): 14.3 µM | TGI (PC-3 prostate): 72.9 µM | GI50 (RPMI-8226 leukemia): 25.7 µM | TGI (RPMI-8226 leukemia): 91.3 µM | GI50 (RXF 393 renal): 13.2 µM | TGI (RXF 393 renal): 34.3 µM | GI50 (SF-268 CNS): 23.2 µM | TGI (SF-268 CNS): > 100 µM | GI50 (SF-295 CNS): 18.2 µM | TGI (SF-295 CNS): 49.7 µM | GI50 (SF-539 CNS): 18.1 µM | TGI (SF-539 CNS): 36 µM | GI50 (SK-MEL-2 melanoma): 14.8 µM | TGI (SK-MEL-2 melanoma): 32.1 µM | GI50 (SK-MEL-28 melanoma): 18.2 µM | TGI (SK-MEL-28 melanoma): 40.3 µM | GI50 (SK-MEL-5 melanoma): 15.2 µM | TGI (SK-MEL-5 melanoma): 29.3 µM | GI50 (SK-OV-3 ovarian): 20.8 µM | TGI (SK-OV-3 ovarian): 82.7 µM | GI50 (SN12C renal): 13.7 µM | TGI (SN12C renal): 28.4 µM | GI50 (SNB-19 CNS): 30 µM | TGI (SNB-19 CNS): > 100 µM | GI50 (SNB-75 CNS): 11 µM | TGI (SNB-75 CNS): 71.3 µM | GI50 (SR leukemia): 14.7 µM | TGI (SR leukemia): 53.5 µM | GI50 (SW-620 colon): 17.6 µM | TGI (SW-620 colon): 51.2 µM | GI50 (T-47D breast): 18.3 µM | TGI (T-47D breast): 74.1 µM | GI50 (TK-10 renal): 23.4 µM | TGI (TK-10 renal): 87.9 µM | GI50 (U251 CNS): 23 µM | TGI (U251 CNS): 64.8 µM | GI50 (UACC-257 melanoma): 23.3 µM | TGI (UACC-257 melanoma): 79 µM | GI50 (UACC-62 melanoma): 12.6 µM | TGI (UACC-62 melanoma): 27.8 µM | GI50 (UO-31 renal): 16.4 µM | TGI (UO-31 renal): > 100 µM
